# Key:
# Atrogin-1 and MuRF1 = experiment: Immunoblot for muscle wasting markers in gastrocnemius; assay type: in vivo; details: skeletal muscle of old (22-month-old) mice; NMN
# From the text: (§1) C57BL/6J mice of 6, 22, or 30 months of age were obtained from the National Institutes of Aging mouse aging colony. Additionally 22 months old caloric restricted mice were also obtained from the National Institutes of Aging mouse aging colony. EGLN1 KO, SIRT1 KO and SIRT1 OE mice were generated as previously described (Minamishima et al., 2008; Price et al., 2012). Mice were acclimated for at least one-week prior to sacrifice. 3, 6, 22 and 24-month-old mice were given interperitoneal (IP) injections of 500 mg NMN/kg body weight per day or the equivalent volume of PBS for 7 consecutive days at 5:00 pm and 7:00 am on day 8 and sacrificed 4 hr after last injection.
# (§2) Protein extracts from tissue or C2C12 cells were obtained by lysis in ice-cold lysis buffer (150 mM NaCl, 10 mM Tris HCl (pH 7.4), 1 mM EDTA, 1 mM EGTA, 1% Triton X-100, 0.5% NP-40) supplemented with a cocktail of protease and phosphatase inhibitors (Roche). Protein content was determined by the Bradford protein assay (Biorad), and 50 μg proteins were run on SDS-PAGE under reducing conditions. The separated proteins were then electrophoretically transferred to a polyvinylidene difluoride membrane (Perkin-Elmer). […] The immunostaining was detected using horseradish peroxidase-conjugated anti-rabbit or anti-mouse immunoglobulin for 1 h at room temperature.
# VHL = experiment: Immunoblot for VHL in gastrocnemius of NMN-treated mice; assay type: in vivo; details: 22-month-old mice, NMN one week
# From the text: as §1, §2
# [1] = test system: skeletal muscle mitochondria; experiment: Mitochondrial function in skeletal muscle (membrane potential, ATP content, COX activity); assay type: in vivo, mice
# Procedure: (§3) C57BL/6J mice of 3, 6, 22, 24, or 30 months of age were obtained from the National Institutes of Aging mouse aging colony. Mice were acclimated for at least one-week prior to sacrifice. 3, and 24-month-old mice were given interperitoneal (IP) injections of 500 mg NMN/kg body weight per day or the equivalent volume of PBS for 7 consecutive days at 5:00 pm and 7:00 am on day 8 and sacrificed 4 hr after last injection. All animal studies followed the guidelines of and were approved by the Harvard Institutional Animal Care and Use Committee
# Skeletal muscle mitochondria were isolated as described previously (Frezza et al., Nat. Protoc. 2:287-295 (2007)). Mitochondrial membrane potential, cytochrome c activity and succinate dehydrogenase were determined as described (Brautigan et al., Methods Enzymol. 53:128-164 (1978); Rolo et al., Biochim. Biophys. Acta. 1637:127-132 ([…]); Singer, T. P., Methods Biochem. Anal. 22:123-175 (1974)). ATP content was measured with a commercial kit according to the manufacturer's instructions (Roche).
# as §1
# Whole body adult-inducible Egln1 knockout mice (Minamishima et al, 2007) were treated with IP injection of tamoxifen for 3 days after which they were allowed to rest. The mice were given interperitoneal (IP) injections of 500 mg NMN/kg body weight per day or the equivalent volume of PBS for 7 consecutive days at 5:00 pm and 7:00 am on day 8 and sacrificed 4 hr after last injection. All animal studies followed the guidelines of and were approved by the Harvard Institutional Animal Care and Use Committee.
# Cytochrome c oxidase activity was polarographically determined based on the 02 consumption upon cytochrome c oxidation, as previously described (Brautigan et al., 1978). The reaction was carried out at 25° C. in 1.3 mL of standard respiratory medium (as in mitochondrial respiration) supplemented with 2 μM rotenone, 10 μM oxidized cytochrome c, 0.3 mg TritonX-100. Following addition of the sample, the reaction was initiated by adding 5 mM ascorbate plus 0.25 mM tetramethylphenylene-diamine (TMPD).
# ATP content was measured with a commercial kit according to the manufacturer's instructions (Roche).
# [2] = test system: inflammation related markers in aortas; experiment: qPCR of inflammation related markers in aortas; assay type: in vivo, C57BL/6J mice; details: 22-months-old mice, NMN IP 500 mg/kg/day, 7 days
# Procedure: as §3, with “6, 22, or 24” for “6, 22, 24, or 30”, “22, or 24 months of” for “24, or 30 months of”, “sacrifice. 3, 6, 22 and 24-month-old” for “sacrifice. 3, and 24-month-old”
# RNA from skeletal muscle and aorta were extracted with RNeasy mini kit (Qiagen) according to the instructions and quantified using the NanoDrop 1000 spectrophotometer (Thermo Scientific). cDNA was synthesized with the iSCRIP cDNA synthesis kit (BioRad) using 600 ng of RNA. Quantitative RT-PCR reactions were performed using 1 μM of primers and LightCycler® 480 SYBR Green Master (Roche) on an LightCycler® 480 detection system (Roche). Calculations were performed by a comparative method (2-ΔCT) using 18S as an internal control. Primers were designed using the IDT software (IDT).
# [3] = treated 24-month-old mice, NMN 500 mg/kg IP, one week
smiles,measurement,setting,value
"NC(=O)c1ccc[n+]([C@@H]2O[C@H](COP(=O)([O-])O)[C@@H](O)[C@H]2O)c1 [NMN, nicotinamide mononucleotide]",muscle wasting markers Atrogin-1 and MuRF1,Atrogin-1 and MuRF1,completely reversed
same,VHL protein,VHL,reversed the age-induced decline in VHL
same,ATP levels,"[1]; 22-month-old mice, gastrocnemius, NMN one week",increase
same,ATP levels in the skeletal muscle,"[1]; Egln1 KO mice treated with NMN, compared to WT controls",did not restore
same,ability of NMN to improve mitochondrial function,[1]; inducible SIRT1 KO mice,lost in animals lacking SIRT1
same,COX activity,"[1]; old mice, NMN one week (FIG. 24H: 3- and 24-month-old)",increase
same,ATP levels,[1]; [3],increases
same,COX activity,[1]; [3],increases
same,mitochondrial membrane potential,[1]; [3],restoration of mitochondrial membrane potential to the levels of the young mice
same,"inflammation related markers (IL-6, TNFa, Nlrp3, IL-1b, CD68 and IL-10) in aortas",[2]; FIG. 26,reduces inflammation in aortas from old mice
same,inflammatory markers (VEGF and IL-18) in aortas,[2]; FIG. 27,reduces inflammation in aortas from old mice
